{
  "source": "patent US20210283261A1",
  "about": "“Compositions and Methods for Treating ALK-Mediated Cancer” (ICAHN SCHOOL OF MEDICINE AT MOUNT SINAI, priority 2017, published 2021)",
  "data": [
    {"target": "T1, NPM-ALK fusion protein (Homo sapiens, UniProt Q9UM73)", "T1 construct": "endogenous in cells; host or cells: SU-DHL-1; the other entry of the earlier key: NPM1 (P06748, Nucleophosmin)", "T1 sequence (Q9UM73 with tags, fused parts or gaps)": "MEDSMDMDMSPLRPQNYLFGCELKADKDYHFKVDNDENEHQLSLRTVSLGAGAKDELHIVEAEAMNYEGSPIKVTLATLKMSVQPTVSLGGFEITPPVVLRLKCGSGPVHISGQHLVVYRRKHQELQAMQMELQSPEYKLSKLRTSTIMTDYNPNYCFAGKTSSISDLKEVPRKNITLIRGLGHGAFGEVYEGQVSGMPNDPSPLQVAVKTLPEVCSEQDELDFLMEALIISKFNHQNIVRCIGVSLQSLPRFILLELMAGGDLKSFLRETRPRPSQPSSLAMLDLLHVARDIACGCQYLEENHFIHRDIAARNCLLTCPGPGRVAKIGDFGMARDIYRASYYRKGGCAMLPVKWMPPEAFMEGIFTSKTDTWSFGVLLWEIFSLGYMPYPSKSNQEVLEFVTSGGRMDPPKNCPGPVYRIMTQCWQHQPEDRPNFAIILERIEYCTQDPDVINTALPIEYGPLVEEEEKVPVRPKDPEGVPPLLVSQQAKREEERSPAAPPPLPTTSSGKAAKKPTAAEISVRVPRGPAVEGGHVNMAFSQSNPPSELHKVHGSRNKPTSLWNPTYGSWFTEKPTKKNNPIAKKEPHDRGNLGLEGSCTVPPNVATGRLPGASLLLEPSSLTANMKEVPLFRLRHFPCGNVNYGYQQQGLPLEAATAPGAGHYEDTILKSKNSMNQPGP", "assay": "Western blot of NPM-ALK fusion protein levels in SU-DHL-1 cells", "assay_type": "cell-based", "settings": "SU-DHL-1 cells, 30 nM, Western blot; read-out: ALK fusion protein degradation, SU-DHL-1 (30 nM)", "description": "Cells were cultured in a 37° C. incubator with 5% CO2.\nCells were washed with cold PBS once and lysed in 1× Laemmli loading buffer directly. […] Membrane was blocked in 5% milk in Tris-buffered saline and Tween 20 (TBST) for 1 h at room temperature, followed by incubation with a primary antibody overnight at 4° C., and a horseradish peroxidase (HRP)-conjugated secondary antibody for 1 h at room temperature. The membrane was imaged by a ChemiDoc MP imaging system (BIO-RAD). Antibodies against GAPDH (abeam), Phospho-ALK (Tyr1507), ALK (Cell Signaling Technology), Tubulin (Santa Cruz) were purchased commercially.\nSU-DHL-1 suspension cells were seeded in 12-well plates at a density of 6×10^5/mL and treated with DMSO or indicated compounds at 30 nM or 100 nM for indicated time.\nSU-DHL-1 cells were seeded in 12-well plates at a density of 4×10^5/mL and treated with DMSO or indicated serial dilutions of compounds for 16 h. The NPM-ALK fusion protein levels were determined by Western blot and normalized against GPADH (right panel).", "units": {"Dmax at 0.03 µM": "%"}, "values": [
      {"compound": "Cc1cc(Nc2ncc(Cl)c(Nc3ccccc3S(=O)(=O)C(C)C)n2)c(OC(C)C)cc1C1CCN(CC(=O)NCCOCCOCCOCCOCCC(=O)N[C@H](C(=O)N2C[C@H](O)C[C@H]2C(=O)NCc2ccc(-c3scnc3C)cc2)C(C)(C)C)CC1", "note": "[CZ40-87, (2S,4R)-1-((S)-20-(tert-Butyl)-1-(4-(4-((5-chloro-4-((2-(isopropylsulfonyl)phenyl)amino)pyrimidin-2-yl)amino)-5-isopropoxy-2-methylphenyl)piperidin-1-yl)-2,18-dioxo-6,9,12,15-tetraoxa-3,19-diazahenicosan-21-oyl)-4-hydroxy-7V-(4-(4-methylthiazol-5-yl)benzyl)pyrrolidine-2-carboxamide]", "Dmax at 0.03 µM": "< 20"},
      {"compound": "Cc1cc(Nc2ncc(Cl)c(Nc3ccccc3S(=O)(=O)C(C)C)n2)c(OC(C)C)cc1C1CCN(CC(=O)NCCCCC(=O)N[C@H](C(=O)N2C[C@H](O)C[C@H]2C(=O)NCc2ccc(-c3scnc3C)cc2)C(C)(C)C)CC1", "note": "[CZ40-88, (2S,4R)-1-((S)-2-(5-(2-(4-(4-((5-Chloro-4-((2-(isopropylsulfonyl)phenyl)amino)pyrimidin-2-yl)amino)-5-isopropoxy-2-methylphenyl)piperidin-1-yl)acetamido)pentanamido)-3,3-dimethylbutanoyl)-4-hydroxy-N-(4-(4-methylthiazol-5-yl)benzyl)pyrrolidine-2-carboxamide]", "Dmax at 0.03 µM": "20 to 80"},
      {"compound": "Cc1cc(Nc2ncc(Cl)c(Nc3ccccc3S(=O)(=O)C(C)C)n2)c(OC(C)C)cc1C1CCN(CC(=O)NCCCCCC(=O)N[C@H](C(=O)N2C[C@H](O)C[C@H]2C(=O)NCc2ccc(-c3scnc3C)cc2)C(C)(C)C)CC1", "note": "[CZ40-89, (2S,4R)-1-((S)-2-(6-(2-(4-(4-((5-chloro-4-((2-(isopropylsulfonyl)phenyl)amino)pyrimidin-2-yl)amino)-5-isopropoxy-2-methylphenyl)piperidin-1-yl)acetamido)hexanamido)-3,3-dimethylbutanoyl)-4-hydroxy-N-(4-(4-methylthiazol-5-yl)benzyl)pyrrolidine-2-carboxamide]", "Dmax at 0.03 µM": "20 to 80"},
      {"compound": "Cc1cc(Nc2ncc(Cl)c(Nc3ccccc3S(=O)(=O)C(C)C)n2)c(OC(C)C)cc1C1CCN(CC(=O)NCCCCCCC(=O)N[C@H](C(=O)N2C[C@H](O)C[C@H]2C(=O)NCc2ccc(-c3scnc3C)cc2)C(C)(C)C)CC1", "note": "[CZ40-90, (2S,4R)-1-((S)-2-(7-(2-(4-(4-((5-Chloro-4-((2-(isopropylsulfonyl)phenyl)amino)pyrimidin-2-yl)amino)-5-isopropoxy-2-methylphenyl)piperidin-1-yl)acetamido)heptanamido)-3,3-dimethylbutanoyl)-4-hydroxy-N-(4-(4-methylthiazol-5-yl)benzyl)pyrrolidine-2-carboxamide]", "Dmax at 0.03 µM": "< 20"},
      {"compound": "Cc1cc(Nc2ncc(Cl)c(Nc3ccccc3S(=O)(=O)C(C)C)n2)c(OC(C)C)cc1C1CCN(CC(=O)NCCCCCCCCC(=O)N[C@H](C(=O)N2C[C@H](O)C[C@H]2C(=O)NCc2ccc(-c3scnc3C)cc2)C(C)(C)C)CC1", "note": "[CZ40-92, (2S,4R)-1-((S)-2-(9-(2-(4-(4-((5-Chloro-4-((2-(isopropylsulfonyl)phenyl)amino)pyrimidin-2-yl)amino)-5-isopropoxy-2-methylphenyl)piperidin-1-yl)acetamido)nonanaimdo)-3,3-dimethylbutanoyl)-4-hydroxy-N-(4-(4-methylthiazol-5-yl)benzyl)pyrrolidine-2-carboxamide]", "Dmax at 0.03 µM": "< 20"},
      {"compound": "Cc1cc(Nc2ncc(Cl)c(Nc3ccccc3S(=O)(=O)C(C)C)n2)c(OC(C)C)cc1C1CCN(CC(=O)NCCCCCCCCCC(=O)N[C@H](C(=O)N2C[C@H](O)C[C@H]2C(=O)NCc2ccc(-c3scnc3C)cc2)C(C)(C)C)CC1", "note": "[CZ40-93]", "Dmax at 0.03 µM": "< 20"}
    ]}
  ]
}
